Test results as given in patent US20260272797A1, “FRAGRANCE COMPOSITION” (GIVAUDAN SA, priority 2023, published 2026).

Columns and labels:
[1] = Impact of fragrance ingredients on scalp malodour counteractancy of 80 fragrance compositions (Example 2 protocol, statistical presence); settings: series of 80 fragrance compositions
Method: In a second set of experiments, the impact of these fragrance ingredients on the scalp malodour counteractancy of a fragrance composition was assessed. The scalp malodour counteractancy of a series of 80 fragrance compositions was assessed by performing the evaluation protocol described in Example 2. […] Ingredients that were statistically more present in fragrances having a high malodour counteractancy were assigned a positive status, whereas ingredients that were statistically more present in compositions having a low malodour counteractancy were assigned a negative status.

[2] = Gas-phase evaluation of each fragrance ingredient alone against model scalp malodour, MiniVAS device, panel of 5 experts; settings: for Scalp MOC of ingredient alone: expert description
Method: In a first set of experiments, the scalp malodour counteractancy of 173 fragrance ingredients was evaluated by panel of 5 experts.
The evaluation was performed in the gas phase, using a MiniVAS™ device (ex Givaudan SA). This device is a regulating means that comprises a plurality of channels adapted to convey a gas (more particularly air) through cartridges, each cartridge containing a fragrance ingredient adsorbed onto an adsorbent. The air flows coming from the different cartridges are admixed and conveyed to the user's nose through a tubing fitted with an olfactometer funnel. Thus, by opening and closing channels and maintaining these opened and closed, respectively, for predetermined times, the regulating means can determine which fragrance ingredients and how much thereof are conveyed and when, and thus alter the nature of the fragrance perceived by the user. A description of the device can be found in WO2014154909A1, page 2, line 11 to page 4, line 7, and in H. R. Gygax et al. “Evolution of Real Time Aroma Creation at Givaudan”, poster presented at the 12th Weurman Flavour Research Symposium. July 2008. Interlaken, Switzerland; DOI: 10.13140/2.1.1924.0641.
For the sake of the present evaluation, one cartridge contained the scalp malodour (in the form of a model malodour) and each fragrance ingredient was assigned to another cartridge. The malodour counteractancy of each fragrance ingredient was evaluated separately against the scalp malodour. A constant air flow rate of 50 ml/min was used for all measurements. The perceived malodour intensity, as well as the fragrance intensity, were ranked on a scale of 1-5 (1=barely noticeable, 2=weak, 3=medium, 4=strong and 5=very strong).

[3] = Table 3, air flow 50 ml/min, scale of 1-5 (1=barely noticeable, 5=very strong)
[4] = Table 4, air flow 50 ml/min, scale of 1-5

| Molecule | Impact on scalp MOC of fragrance composition ([1]; Table 3) | MO intensity [2, 3] | Scalp MOC of ingredient alone ([2]; Table 3, gas phase) | Impact on scalp MOC of fragrance composition ([1]; Table 4) | MO intensity [2, 4] | Scalp MOC of ingredient alone ([2]; Table 4, gas phase) |
| --- | --- | --- | --- | --- | --- | --- |
| O=CCC/C=C1\CC2CC1[C@H]1CCC[C@@H]21 (stereo partly drawn) [(E)-4-((3aS,7aS)-hexahydro-1H-4,7-methanoinden-5(6H)-ylidene)butanal] | Positive | 2.5 | – | – | – | – |
| C/C=C(\CC)CCC(C)CCO (stereo not drawn) [(E)-6-ethyl-3-methyloct-6-en-1-ol] | Positive | 3 | – | – | – | – |
| CC1C/C=C/CCCCCCCC(=O)OCC1 (stereo not drawn) [(E)-13-methyloxacyclopentadec-10-en-2-one] | Positive | 2 | – | – | – | – |
| CCCCCC/C=C/C(=O)OC [(E)-methyl non-2-enoate] | Positive | 1 | No effect | – | – | – |
| CC(=O)OC/C=C(/C)CCC=C(C)C [(Z)-3,7-dimethylocta-2,6-dien-1-yl acetate] | – | – | – | Negative | 1 | – |
| CC/C=C\CC1=C(C)CCC1=O [(Z)-3-methyl-2-(pent-2-en-1-yl)cyclopent-2-enone] | – | – | – | Negative | 1.8 | Low coverage |
| CC1C/C=C\CCCCCCCCCC(=O)C1 (stereo not drawn) [(Z)-3-methylcyclopentadec-5-enone] | Positive | 2.1 | – | – | – | – |
| O=C1CCC/C=C\CCCCCCCCCC1 [(Z)-cyclohexadec-5-enone] | – | – | – | Negative | 1 | Enhances MO |
| CC/C=C\CCOC(=O)c1ccccc1 [(Z)-hex-3-en-1-yl benzoate] | – | – | – | Negative | 2 | Low coverage |
| C=CCOC(=O)COC1CCCCC1 [allyl 2-(cyclohexyloxy)acetate] | – | – | – | Negative | 4.3 | – |
| O=Cc1ccc2c(c1)OCO2 [benzo[d][1,3]dioxole-5-carbaldehyde] | Positive | 3 | – | – | – | – |
| CC(=O)OCc1ccccc1 [benzyl acetate] | – | – | – | Negative | 0 | Enhances MO |
| CCC(=O)OCc1ccccc1 [benzyl propanoate] | – | – | – | Negative | 1 | – |
| O=C(OC1CCCCC1)c1ccccc1O [cyclohexyl 2-hydroxybenzoate] | Positive | 1 | No effect | – | – | – |
| CCOC(=O)C1=C(C)C=CCC1(C)C [ethyl 2,6,6-trimethylcyclohexa-1,3-diene-1-carboxylate] | – | – | – | Negative | 1 | – |
| CCOC(=O)CC1(C)OCCO1 [ethyl 2-(2-methyl-1,3-dioxolan-2-yl)acetate] | Positive | 2.3 | – | – | – | – |
| CCOC(=O)C(C)C [ethyl 2-methylpropanoate] | Positive | 1 | No effect | – | – | – |
| CCCCCCC(=O)OCC [ethyl heptanoate] | Positive | 1 | No effect | – | – | – |
| CCOC(=O)C1OC1(C)c1ccccc1 (stereo not drawn) [ethyl methyl phenyl glycidate] | – | – | – | Negative | 1 | – |
| CCCCCCCC(=O)OCC [ethyl octanoate] | Positive | 1 | No effect | – | – | – |
| COC(=O)c1ccccc1N [methyl 2-aminobenzoate] | Positive | 4.3 | – | – | – | – |
| CCCCCCC1C(=O)CCC1C(=O)OC (stereo not drawn) [methyl 2-hexyl-3-oxocyclopentane-1-carboxylate] | – | – | – | Negative | 1 | – |
| CCCCCCC#CC(=O)OC [methyl non-2-ynoate] | Positive | 1.8 | – | – | – | – |
| C=CCOC(=O)CCC1CCCCC1 [prop-2-enyl 3-cyclohexylpropanoate] | – | – | – | Negative | 1.5 | – |
| CC(C)CC1CC(C)(O)CCO1 (stereo not drawn) [tetrahydro-4-methyl-2-(2-methylpropyl)-2H-pyran-4-ol] | – | – | – | Negative | 2.2 | Low coverage |
| CCCCCCCCCCC=O [undecanal] | – | – | – | Negative | 1 | Enhances MO |
| mercapto-para-menthan-3-one | Positive | 1 | No effect | – | – | – |
